{
  "source": "patent US8895317B2",
  "about": "“Reagent for measuring active nitrogen” (The University of Tokyo, priority 2008, dated 2014)",
  "key": {"[1]": {"test": "Fluorescence quantum yield", "assay_type": "physicochemical", "conditions": "triazole compound at a physiological pH", "excerpt": "(§1) Therefore, use of DCl-DA Cal enables observation of intracellular reactive nitrogen species over such a long period of time that cannot be achieved by conventional fluorescent probes for measuring reactive nitrogen."}, "[2]": {"test": "Stability under physiological conditions", "assay_type": "physicochemical", "excerpt": "as §1"}},
  "data": [
    {"smiles": "O=C(O)CN(CC(=O)O)Cc1c2oc3c(CN(CC(=O)O)CC(=O)O)c(O)c(Cl)cc3c(-c3ccc4[nH]nnc4c3C(=O)O)c-2cc(Cl)c1=O", "note": "[triazole compound]", "values": [
      {"measurement": "fluorescence quantum yield Φf", "setting": "[1]", "value": 0.63},
      {"measurement": "stability under physiological conditions", "setting": "[2]", "value": "stable under physiological conditions"}
    ]}
  ]
}
